Laboratory results published in patent US20210002231A1 (Centre National de la Recherche Scientifique, priority 2018, published 2021).
Starred links: 1 amine or outer side, 2 acyl side, 3 side chain; linkers in the order of their positions; H or OH if unused. Non-standard residues stand in square brackets, D forms with d. Residues, ends and D or L forms follow the SMILES beside them. Nva(5-(4-Bn-piperidin-1-yl)) = N[C@@H](CCCN1CCC(Cc2ccccc2)CC1)C(=O)O; X5 = O=C1[C@@H](N[*:1])Cc2ccccc2CN1CCCC(=O)[*:2]; X1 = O=C1[C@@H](N[*:1])Cc2ccccc2CN1CCC(=O)[*:2]; Tic(7-OH) = O=C(O)[C@@H]1Cc2ccc(O)cc2CN1; Dmt = Cc1cc(O)cc(C)c1C[C@H](N)C(=O)O; dOrn = NCCC[C@@H](N)C(=O)O; dNMeA = CN[C@H](C)C(=O)O; Nlys = NCCCCNCC(=O)O; βAla = NCCC(=O)O

Experiments:
human MOPr [1] = target: T1, human MOPr (Homo sapiens, UniProt P35372); assay: cell-based; format: cell-based; set-up: expressed in transfected cells; HEK293-Glo20F cells (cAMP); conditions: for Emax: read-out: MOPr (cAMP) Emax; for MOPr-induced G protein activation: in words
T1 sequence (P35372 whole entry): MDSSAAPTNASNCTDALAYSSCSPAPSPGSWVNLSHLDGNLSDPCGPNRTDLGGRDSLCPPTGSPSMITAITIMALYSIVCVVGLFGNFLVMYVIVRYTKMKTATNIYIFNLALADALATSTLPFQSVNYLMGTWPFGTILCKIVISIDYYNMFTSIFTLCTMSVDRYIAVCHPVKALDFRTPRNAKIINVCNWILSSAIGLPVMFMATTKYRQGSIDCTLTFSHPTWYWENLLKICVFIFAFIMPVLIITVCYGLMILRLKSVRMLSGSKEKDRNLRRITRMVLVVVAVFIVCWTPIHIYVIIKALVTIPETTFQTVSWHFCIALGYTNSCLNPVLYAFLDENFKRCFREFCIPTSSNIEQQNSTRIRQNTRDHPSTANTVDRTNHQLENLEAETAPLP
Method: Stimulation by endogenous RF-amide peptides or test compounds for [^35S]-GTPγS binding to membranes from CHO cells expressing human NPFF1R or NPFF2R, were examined as reported. 1.6. Glo-Sensor cAMP Assay cAMP accumulation assay was essentially done as described with the following modifications: HEK293 cells stably expressing cAMP Glosensor-20F were used, with or without additional stable expression of each individual opioid receptor or NPFF1R. The cAMP responses were measured in presence of D-luciferin (1 mM).

human MOPr [2] = target: T1, human MOPr; assay: BRET1 β-arrestin-2 recruitment assay; format: cell-based; set-up: expressed in transfected cells; host or cells: HEK293 cells stably expressing eYFP-β-arrestin-2, transiently transfected with the Rluc8-MOP plasmid; conditions: for Emax: read-out: MOPr (β-arrestin-2) Emax; for β-arrestin-2 recruitment: in words;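 for Emax: Emax relative to maximal DAMGO-induced BRET as 100%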;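 for MOPr (β-arrestin-2) Emax: Emax relative to maximal DAMGO-induced BRET as 100%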
Method: Peak response amplitudes were normalized to basal and maximal (cells permeabilized with 20 μM digitonin) fluorescence levels. 1.8. β-Arrestin-2 recruitment assay The β-arrestin-2 recruitment assay was performed as described [34; 45] with minor modifications. Briefly, two days prior the experiment, HEK293 cells stably expressing eYFP-tagged β-arrestin-2 were transfected with the plasmid encoding Rluc8-MOP receptor. β-Arrestin-2 recruitment was measured at 37° C. in presence of 5 μM Coelenterazine H, 5 min after agonist addition.

[3] = Table 3B, read-out: MOPr (cAMP) EC50
[4] = Table 3B, — = non-detectable recruitment, read-out: MOPr (β-arrestin-2) EC50
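Throughout, for MOPr (cAMP) Emax: Emax relative to DAMGO as 100%.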

SMILES	EC50 (human MOPr [1]; [3])	Emax (human MOPr [1])	EC50 (human MOPr [2]; [4])	Emax (human MOPr [2])	MOPr-induced G protein activation (human MOPr [1])	β-arrestin-2 recruitment (human MOPr [2])	EC50 (human MOPr [1]; MOPr (cAMP) EC50, Table 3B)	EC50 (human MOPr [2])
Cc1cc(O)cc(C)c1C[C@H](N)C(=O)N(C)[C@H](C)C(=O)N[C@H]1Cc2ccccc2CN(CCC(=O)N[C@@H](CCCN2CCC(Cc3ccccc3)CC2)C(=O)N[C@@H](Cc2ccccc2)C(N)=O)C1=O [DP0007, H-Dmt-N(Me)-D-Ala-Aba-β-Ala-Bpa-Phe-NH2] (H-[Dmt][dNMeA][X1][Nva(5-(4-Bn-piperidin-1-yl))]F-NH2)	40 ± 20 nM	64 ± 6%	214 nM	12%	–	–	–	–
Cc1cc(O)cc(C)c1C[C@H](N)C(=O)N1CCC[C@@H]1C(=O)N[C@H]1Cc2ccccc2CN(CCC(=O)N[C@@H](CCCN2CCC(Cc3ccccc3)CC2)C(=O)N[C@@H](Cc2ccccc2)C(N)=O)C1=O [DP0008, H-Dmt-D-Pro-Aba-β-Ala-Bpa-Phe-NH2] (H-[Dmt][dP][X1][Nva(5-(4-Bn-piperidin-1-yl))]F-NH2)	10.6 ± 1.3 nM	53 ± 0.7%	–	–	significant	non-detectable	–	–
Cc1cc(O)cc(C)c1C[C@H](N)C(=O)N[C@H](CCCN1CCC(Cc2ccccc2)CC1)C(=O)N[C@H]1Cc2ccccc2CN(CCC(=O)N[C@@H](CCCN2CCC(Cc3ccccc3)CC2)C(=O)N[C@@H](Cc2ccccc2)C(N)=O)C1=O [DP0009, H-Dmt-D-Bpa-Aba-β-Ala-Bpa-Phe-NH2]	800 nM	35%	–	–	–	–	–	–
Cc1cc(O)cc(C)c1C[C@H](N)C(=O)N[C@H](CCCNC(=N)N)C(=O)N[C@H]1Cc2ccccc2CN(CCC(=O)N[C@@H](CCCN2CCC(Cc3ccccc3)CC2)C(=O)N[C@H](Cc2ccccc2)C(N)=O)C1=O [DP0015, H-Dmt-D-Arg-Aba-β-Ala-Bpa-D-Phe-NH2]	5.9 ± 0.3 nM	109 ± 0.4%	80 nM	59%	–	–	–	–
Cc1cc(O)cc(C)c1C[C@H](N)C(=O)N[C@H](CCCNC(=N)N)C(=O)N[C@H]1Cc2ccccc2CN(CCC(=O)N[C@@H](CCCN2CCC(Cc3ccccc3)CC2)C(=O)N[C@@H](Cc2ccccc2)C(=O)NCCC(N)=O)C1=O [DP0016, H-Dmt-D-Arg-Aba-β-Ala-Bpa-Phe-β-Ala-NH2] (H-[Dmt][dR][X1][Nva(5-(4-Bn-piperidin-1-yl))]F[βAla]-NH2)	19 nM	95%	399 nM	31%	–	–	–	–
Cc1cc(O)cc(C)c1C[C@H](N)C(=O)N(C)[C@H](C)C(=O)N[C@H]1Cc2ccccc2CN(CCCC(=O)N[C@@H](CCCN2CCC(Cc3ccccc3)CC2)C(=O)N[C@@H](Cc2ccccc2)C(N)=O)C1=O [DP0017, H-Dmt-N(Me)-D-Ala-AbaGABA-Bpa-Phe-NH2] (H-[Dmt][dNMeA][X5][Nva(5-(4-Bn-piperidin-1-yl))]F-NH2)	14.1 nM	70%	–	–	significant	non-detectable	–	–
Cc1cc(O)cc(C)c1C[C@H](N)C(=O)N[C@H](CCCNC(=N)N)C(=O)N[C@H]1Cc2c(ccc3ccccc23)CN(CC(=O)N[C@@H](CCCN2CCC(Cc3ccccc3)CC2)C(=O)N[C@@H](Cc2c[nH]c3ccccc23)C(N)=O)C1=O [DP0023, H-Dmt-D-Arg-1AnaGly-Bpa-Trp-NH2]	–	61%	–	–	significant	non-detectable	9.1 nM	–
Cc1cc(O)cc(C)c1C[C@H](N)C(=O)N[C@H](CCCNC(=N)N)C(=O)N[C@@H](Cc1ccccc1)C(=O)N(C)CC(=O)N[C@@H](CCCN1CCC(Cc2ccccc2)CC1)C(=O)N[C@@H](Cc1ccccc1)C(N)=O [DP0024, H-Dmt-D-Arg-Phe-N(Me)Gly-Bpa-Phe-NH2] (HELM PEPTIDE1{[Cc1cc(O)cc(C)c1C[C@H](N)C(=O)[*:2]].[dR].F.[Sar].[O=C([C@H](CCCN1CCC(Cc2ccccc2)CC1)N[*:1])[*:2]].F.[am]}$$$$V2.0)	9.9 nM	97%	~50 nM	~95%	–	–	–	–
Cc1cc(O)cc(C)c1C[C@H](N)C(=O)N[C@H](CCCNC(=N)N)C(=O)N[C@@H](Cc1ccccc1)C(=O)N(C)CC(=O)N[C@@H](CCCN1CCC(Cc2ccccc2)CC1)C(=O)N[C@H](C(N)=O)C(C)C [DP0025, H-Dmt-D-Arg-Phe-N(Me)Gly-Bpa-Val-NH2] (HELM PEPTIDE1{[Cc1cc(O)cc(C)c1C[C@H](N)C(=O)[*:2]].[dR].F.[Sar].[O=C([C@H](CCCN1CCC(Cc2ccccc2)CC1)N[*:1])[*:2]].V.[am]}$$$$V2.0)	7.1 nM	110%	~50 nM	~114%	–	–	–	–
Cc1cc(O)cc(C)c1C[C@H](N)C(=O)N[C@H](CCCNC(=N)N)C(=O)N[C@H]1Cc2ccccc2CN(CCC(=O)N[C@@H](CCCN2CCc3ccccc3C2)C(=O)N[C@@H](Cc2ccccc2)C(N)=O)C1=O [DP0026, H-Dmt-D-Arg-Aba-β-Ala-THIQ-Phe-NH2]	2.4 nM	98%	–	~50%	–	–	–	–
Cc1cc(O)cc(C)c1C[C@H](N)C(=O)N[C@H](CCCNC(=N)N)C(=O)N[C@H]1Cc2ccccc2CN(CCC(=O)N[C@H](CCCN2CCC(Cc3ccccc3)CC2)C(=O)N[C@@H](Cc2ccccc2)C(N)=O)C1=O [DP0027, H-Dmt-D-Arg-Aba-β-Ala-D-Bpa-Phe-NH2]	13.6 nM	95%	~180 nM	~68%	–	–	–	–
Cc1cc(O)cc(C)c1C[C@H](N)C(=O)N[C@H](CCCN)C(=O)N[C@H]1Cc2ccccc2CN(CCC(=O)N[C@@H](CCCN2CCC(Cc3ccccc3)CC2)C(=O)N[C@@H](Cc2ccccc2)C(N)=O)C1=O [DP0028, H-Dmt-D-Orn-Aba-β-Ala-Bpa-Phe-NH2] (H-[Dmt][dOrn][X1][Nva(5-(4-Bn-piperidin-1-yl))]F-NH2)	40.4 nM	75%	–	–	significant	non-detectable	–	–
Cc1cc(O)cc(C)c1C[C@H](N)C(=O)N[C@H](CCCCN)C(=O)N[C@H]1Cc2ccccc2CN(CCC(=O)N[C@@H](CCCN2CCC(Cc3ccccc3)CC2)C(=O)N[C@@H](Cc2ccccc2)C(N)=O)C1=O [DP0029, H-Dmt-D-Lys-Aba-β-Ala-Bpa-Phe-NH2] (H-[Dmt][dK][X1][Nva(5-(4-Bn-piperidin-1-yl))]F-NH2)	25.7 nM	72%	–	–	significant	non-detectable	–	–
Cc1cc(O)cc(C)c1C[C@H](N)C(=O)N[C@H](CCCNC(=N)N)C(=O)N[C@@H](Cc1ccccc1)C(=O)N(C)[C@H](C)C(=O)N[C@@H](CCCN1CCC(Cc2ccccc2)CC1)C(=O)N[C@@H](Cc1ccccc1)C(N)=O [DP0030, H-Dmt-D-Arg-Phe-N(Me)-D-Ala-Bpa-Phe-NH2] (H-[Dmt][dR]F[dNMeA][Nva(5-(4-Bn-piperidin-1-yl))]F-NH2)	27.7 nM	111%	~150 nM	~85%	–	–	–	–
N=C(N)NCCC[C@@H](NC(=O)[C@@H]1Cc2ccc(O)cc2CN1)C(=O)N[C@H]1Cc2ccccc2CN(CCC(=O)N[C@@H](CCCN2CCC(Cc3ccccc3)CC2)C(=O)N[C@@H](Cc2ccccc2)C(N)=O)C1=O [DP0031, 7-OH-Tic-D-Arg-Aba-β-Ala-Bpa-Phe-NH2] (H-[Tic(7-OH)][dR][X1][Nva(5-(4-Bn-piperidin-1-yl))]F-NH2; N-terminus assumed)	3600 nM	46%	–	~40%	–	–	–	> 500 nM
Cc1cc(O)cc(C)c1C[C@H](NC(=N)N)C(=O)N[C@H](CCCNC(=N)N)C(=O)N[C@H]1Cc2ccccc2CN(CCC(=O)N[C@@H](CCCN2CCC(Cc3ccccc3)CC2)C(=O)N[C@@H](Cc2ccccc2)C(N)=O)C1=O [DP0032, Guanidyl-Dmt-D-Arg-Aba-β-Ala-Bpa-Phe-NH2]	–	63%	–	–	significant	non-detectable	12.6 nM	–
Cc1cc(O)cc(C)c1C[C@H](N)C(=O)N(CCCCN)CC(=O)N[C@H]1Cc2ccccc2CN(CCC(=O)N[C@@H](CCCN2CCC(Cc3ccccc3)CC2)C(=O)N[C@@H](Cc2ccccc2)C(N)=O)C1=O [DP0035, H-Dmt-Nlys-Aba-β-Ala-Bpa-Phe-NH2] (H-[Dmt][Nlys][X1][Nva(5-(4-Bn-piperidin-1-yl))]F-NH2)	48.4 nM	15%	–	–	–	–	–	–
